Experimental data from US20260293902A1, “METHODS OF CONTROLLING OR PREVENTING INFESTATION OF PLANTS BY THE PHYTOPATHOGENIC MICROORGANISM CORYNESPORA CASSIICOLA” (SYNGENTA CROP PROTECTION AG, priority 2023, published 2026).

Experiments:
Corynespora cassiicola [1] = assay: Control of Corynespora cassiicola (target leaf spot) in vitro: inhibition of fungal growth in nutrient broth (PDB); assay type: cell-based; conditions: 24° C., 3-4 days, photometric 620 nm, read-out: control of Corynespora cassiicola (inhibition of growth vs untreated control)
Protocol: Conidia of the fungus from cryogenic storage were directly mixed into nutrient broth (PDB potato dextrose broth). A DMSO solution of the test compounds was placed into a microtiter plate (96-well format) and the nutrient broth containing the fungal spores was added to it. The test plates were incubated at 24° C. and the inhibition of growth (% control of Corynespora cassiicola) was determined photometrically after 3-4 days at 620 nm. The activity of a compound is derived by comparing the inhibition of growth in the treated test solution to the growth in the untreated check. The concentration of the compounds was 6.7, 2.2, 0.74, 0.25, and 0.082 ppm.

Corynespora cassiicola [2] = assay: Control of Corynespora cassiicola (target leaf spot) on soybean plants under field conditions; assay type: in vivo; conditions: for Control vs. untreated (%) / Mean severity (percentage of leaf area covered by disease lesions): three foliar applications, soybean, Brazil
Protocol: Tested fungicides were formulated and applied to soybean plants in a foliar broadcast spray using a handheld horizontal boom sprayer. Three applications were made over the course of the growing season, starting 45 days after crop emergence, with following applications at 14-day intervals. Trials were conducted across five locations in Brazil. Assessments of severity of infection from Corynespora cassiicola were made at weekly intervals, based on the percentage of leaf area covered by disease lesions. The results reflect the median scores for these assessments, excluding those with less than 10% severity in the untreated checks to limit the confounding effect of low disease pressure. Values are expressed as the mean disease severity score and as the percentage control relative to the untreated. The comparison is made between Compound A-1.3 at 35 grams active ingredient per hectare and the commercial compounds trifloxystrobin and picoxystrobin at their label rate of 60 grams active ingredient per hectare.

[3] = Trial 1, 60 g/ha, untreated check 24.9
[4] = Trial 2, 60 g/ha, untreated check 18.8

Compound | inhibition of growth at 2.2 ppm (Corynespora cassiicola [1]) | inhibition of growth at 6.7 ppm (Corynespora cassiicola [1]) | Control vs. untreated (%) (Corynespora cassiicola [2]; Trial 1, 60 g/ha) | Mean severity (percentage of leaf area covered by disease lesions) (Corynespora cassiicola [2]; [3]) | Control vs. untreated (%) (Corynespora cassiicola [2]; Trial 2, 60 g/ha) | Mean severity (percentage of leaf area covered by disease lesions) (Corynespora cassiicola [2]; [4]) | further results
COC(=O)NCc1cc(-c2ccn(-c3c(F)cc(C(C)C)cc3F)n2)ccc1C [Compound A-1.1, methyl N-[[5-[1-(2,6-difluoro-4-isopropyl-phenyl)pyrazol-3-yl]-2-methyl-phenyl]methyl]carbamate] | ≥ 50% | ≥ 50% | – | – | – | – | –
COC(=O)NCc1cc(-c2ccn(-c3c(F)cc(C4CC4)cc3F)n2)ccc1C [Compound A-1.3, methyl N-[[5-[1-(4-cyclopropyl-2,6-difluoro-phenyl)pyrazol-3-yl]-2-methyl-phenyl]methyl]carbamate] | ≥ 50% | ≥ 70% | – | – | – | – | inhibition of growth at 0.74 ppm (Corynespora cassiicola [1]; 0.74 ppm): ≥ 50%; Control vs. untreated (%) (Corynespora cassiicola [2]; Trial 1, 35 g/ha): 63.9%; Mean severity (percentage of leaf area covered by disease lesions) (Corynespora cassiicola [2]; Trial 1, 35 g/ha, untreated check 24.9): 9.9; Control vs. untreated (%) (Corynespora cassiicola [2]; Trial 2, 35 g/ha): 68.0%; Mean severity (percentage of leaf area covered by disease lesions) (Corynespora cassiicola [2]; Trial 2, 35 g/ha, untreated check 18.8): 5.3; control of Corynespora cassiicola compared with commercial compounds, in words (Corynespora cassiicola [2]; field trials 1 and 2, 35 g/ha vs trifloxystrobin and picoxystrobin at 60 g/ha): better control of Corynespora cassiicola than both trifloxystrobin and picoxystrobin
CO/C=C(/C(=O)OC)c1ccccc1COc1cccc(C(F)(F)F)n1 [Picoxystrobin, picoxystrobin] | – | – | 45.9% | 14.8 | 20.0% | 14.0 | –
CO/C=C(/C(=O)OC)c1ccccc1Oc1cc(Oc2ccccc2C#N)ncn1 [azoxystrobin] | – | 50% | – | – | – | – | –
COC(=O)N(OC)c1ccccc1COc1ccn(-c2ccc(Cl)cc2)n1 [pyraclostrobin] | – | 50% | – | – | – | – | –
CON=C(C(=O)OC)c1ccccc1CON=C(C)c1cccc(C(F)(F)F)c1 [trifloxystrobin] | – | 50% | 35.3% | 18.1 | 6.7% | 16.0 | –
